According to paper PMC5762315, “Inhibition of polo-like kinase 4 (PLK4): a new therapeutic option for rhabdoid tumors and pediatric medulloblastoma” (Oncotarget, 2017):
Values joined by “and” are separate entries in the source; they are usually repeats but may differ in a detail not shown here. Identical values can stand only once.

Experiments:
Assay in all cases: LanthaScreen Eu Kinase Binding Assay, panel of 486 biochemical kinase assays
[1] = biological target: various kinases (Homo sapiens, UniProt P22612); details: kinase PRKACG (PRKAC gamma); LanthaScreen Binding
various kinases (Homo sapiens, UniProt P22612), sequence (P22612 whole entry): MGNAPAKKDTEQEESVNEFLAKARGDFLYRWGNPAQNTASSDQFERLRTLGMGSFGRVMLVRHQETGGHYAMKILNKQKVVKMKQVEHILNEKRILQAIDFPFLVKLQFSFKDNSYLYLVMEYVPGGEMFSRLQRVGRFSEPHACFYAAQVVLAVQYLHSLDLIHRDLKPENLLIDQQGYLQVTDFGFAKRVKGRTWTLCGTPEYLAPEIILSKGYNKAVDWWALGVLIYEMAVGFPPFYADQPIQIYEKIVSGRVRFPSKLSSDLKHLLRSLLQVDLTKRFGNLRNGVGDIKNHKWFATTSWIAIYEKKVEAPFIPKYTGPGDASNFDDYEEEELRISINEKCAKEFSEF

[2] = biological target: T1, various kinases (Homo sapiens, UniProt Q6PHR2); details: kinase ULK3; LanthaScreen Binding
T1 sequence (Q6PHR2 1-472): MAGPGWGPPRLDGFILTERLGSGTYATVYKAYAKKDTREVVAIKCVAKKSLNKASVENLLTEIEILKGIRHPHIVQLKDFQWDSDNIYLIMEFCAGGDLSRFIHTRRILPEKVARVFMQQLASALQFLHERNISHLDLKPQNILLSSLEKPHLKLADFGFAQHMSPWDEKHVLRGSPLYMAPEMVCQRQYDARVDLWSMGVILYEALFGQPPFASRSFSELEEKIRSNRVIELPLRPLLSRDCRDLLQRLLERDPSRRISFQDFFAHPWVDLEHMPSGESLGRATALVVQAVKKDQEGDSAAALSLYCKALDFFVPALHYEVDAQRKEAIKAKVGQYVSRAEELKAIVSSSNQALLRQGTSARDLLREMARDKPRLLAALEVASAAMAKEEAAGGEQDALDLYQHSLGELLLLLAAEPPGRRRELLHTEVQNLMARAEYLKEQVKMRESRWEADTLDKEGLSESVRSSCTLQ

[3] = biological target: various kinases (Homo sapiens, UniProt Q14004); details: CDK13/cyclin K
[4] = biological target: T2, various kinases (Homo sapiens, UniProt Q8IYT8); details: kinase ULK2; LanthaScreen Binding
T2 sequence (Q8IYT8 1-1036): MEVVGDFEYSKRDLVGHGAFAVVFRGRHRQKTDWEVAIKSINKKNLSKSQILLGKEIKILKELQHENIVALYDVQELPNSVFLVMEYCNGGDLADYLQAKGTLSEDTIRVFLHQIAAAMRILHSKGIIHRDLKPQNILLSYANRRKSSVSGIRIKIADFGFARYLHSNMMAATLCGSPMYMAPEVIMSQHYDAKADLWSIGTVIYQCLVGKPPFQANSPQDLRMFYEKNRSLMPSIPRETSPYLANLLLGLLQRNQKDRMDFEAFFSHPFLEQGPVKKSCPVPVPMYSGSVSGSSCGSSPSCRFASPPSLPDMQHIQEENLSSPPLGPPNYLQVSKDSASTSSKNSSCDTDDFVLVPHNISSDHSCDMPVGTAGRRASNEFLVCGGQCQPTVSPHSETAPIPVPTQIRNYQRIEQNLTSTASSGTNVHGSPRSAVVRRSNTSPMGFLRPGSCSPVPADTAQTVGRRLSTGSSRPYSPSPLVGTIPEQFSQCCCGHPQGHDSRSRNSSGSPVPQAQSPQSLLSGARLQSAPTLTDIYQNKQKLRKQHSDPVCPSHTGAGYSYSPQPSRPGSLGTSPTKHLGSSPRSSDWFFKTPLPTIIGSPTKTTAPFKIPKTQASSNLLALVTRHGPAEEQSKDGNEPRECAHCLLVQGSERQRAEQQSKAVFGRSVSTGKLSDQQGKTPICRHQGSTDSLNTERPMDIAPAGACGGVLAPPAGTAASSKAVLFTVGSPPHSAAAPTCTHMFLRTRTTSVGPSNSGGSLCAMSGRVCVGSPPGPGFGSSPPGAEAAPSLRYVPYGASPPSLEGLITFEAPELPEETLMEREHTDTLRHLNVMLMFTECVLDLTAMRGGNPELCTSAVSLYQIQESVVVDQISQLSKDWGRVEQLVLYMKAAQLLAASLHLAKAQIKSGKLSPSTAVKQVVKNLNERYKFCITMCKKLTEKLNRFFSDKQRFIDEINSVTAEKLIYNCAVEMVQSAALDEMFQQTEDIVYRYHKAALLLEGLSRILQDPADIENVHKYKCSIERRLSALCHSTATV

[5] = biological target: various kinases (Homo sapiens, UniProt Q8IWQ3); details: BRSK2
[6] = biological target: various kinases (Homo sapiens, UniProt Q13131)
various kinases (Homo sapiens, UniProt Q13131), sequence (Q13131 whole entry): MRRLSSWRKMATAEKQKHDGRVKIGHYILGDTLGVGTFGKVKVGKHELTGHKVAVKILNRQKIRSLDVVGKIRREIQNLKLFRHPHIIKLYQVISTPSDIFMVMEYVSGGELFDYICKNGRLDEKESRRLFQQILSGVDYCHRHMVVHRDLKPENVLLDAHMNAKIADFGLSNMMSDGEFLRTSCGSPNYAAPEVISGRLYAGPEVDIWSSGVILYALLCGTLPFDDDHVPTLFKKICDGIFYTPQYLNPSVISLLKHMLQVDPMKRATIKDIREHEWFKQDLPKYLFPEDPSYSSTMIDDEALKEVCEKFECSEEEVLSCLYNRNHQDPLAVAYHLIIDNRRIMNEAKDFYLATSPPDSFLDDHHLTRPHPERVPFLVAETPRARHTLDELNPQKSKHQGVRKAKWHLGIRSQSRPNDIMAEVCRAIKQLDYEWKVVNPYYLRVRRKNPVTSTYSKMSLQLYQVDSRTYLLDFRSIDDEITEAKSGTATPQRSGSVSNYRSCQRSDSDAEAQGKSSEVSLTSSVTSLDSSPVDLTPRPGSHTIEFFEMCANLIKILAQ

[7] = biological target: various kinases (Homo sapiens, UniProt P37173); details: kinase TGFBR2; LanthaScreen Binding
various kinases (Homo sapiens, UniProt P37173), sequence (P37173 23-567): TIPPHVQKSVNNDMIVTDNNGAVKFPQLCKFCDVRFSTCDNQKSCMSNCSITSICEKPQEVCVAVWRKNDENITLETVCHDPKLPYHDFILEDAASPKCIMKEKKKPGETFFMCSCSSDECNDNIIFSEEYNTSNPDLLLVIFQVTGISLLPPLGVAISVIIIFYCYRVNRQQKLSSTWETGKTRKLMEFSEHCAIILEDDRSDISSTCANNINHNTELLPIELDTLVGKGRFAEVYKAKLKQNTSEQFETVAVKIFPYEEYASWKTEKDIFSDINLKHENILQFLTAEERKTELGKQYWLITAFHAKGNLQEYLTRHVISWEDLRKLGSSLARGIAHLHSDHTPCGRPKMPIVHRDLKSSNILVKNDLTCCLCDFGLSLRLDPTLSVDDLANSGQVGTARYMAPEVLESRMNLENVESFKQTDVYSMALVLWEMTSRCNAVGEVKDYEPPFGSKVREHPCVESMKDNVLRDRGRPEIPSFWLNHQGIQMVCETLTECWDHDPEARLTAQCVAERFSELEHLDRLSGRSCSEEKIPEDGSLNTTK

[8] = biological target: various kinases (Homo sapiens, UniProt P10721, D816H); details: KIT D816H
[9] = biological target: various kinases (Homo sapiens, UniProt P00519, M351T); details: ABL1 M351T
[10] = biological target: various kinases (Homo sapiens, UniProt Q86UX6); details: kinase STK32C (YANK3); LanthaScreen Binding
[11] = biological target: various kinases (Homo sapiens, UniProt Q9Y3S1); details: kinase WNK2; LanthaScreen Binding
various kinases (Homo sapiens, UniProt Q9Y3S1), sequence (Q9Y3S1 whole entry): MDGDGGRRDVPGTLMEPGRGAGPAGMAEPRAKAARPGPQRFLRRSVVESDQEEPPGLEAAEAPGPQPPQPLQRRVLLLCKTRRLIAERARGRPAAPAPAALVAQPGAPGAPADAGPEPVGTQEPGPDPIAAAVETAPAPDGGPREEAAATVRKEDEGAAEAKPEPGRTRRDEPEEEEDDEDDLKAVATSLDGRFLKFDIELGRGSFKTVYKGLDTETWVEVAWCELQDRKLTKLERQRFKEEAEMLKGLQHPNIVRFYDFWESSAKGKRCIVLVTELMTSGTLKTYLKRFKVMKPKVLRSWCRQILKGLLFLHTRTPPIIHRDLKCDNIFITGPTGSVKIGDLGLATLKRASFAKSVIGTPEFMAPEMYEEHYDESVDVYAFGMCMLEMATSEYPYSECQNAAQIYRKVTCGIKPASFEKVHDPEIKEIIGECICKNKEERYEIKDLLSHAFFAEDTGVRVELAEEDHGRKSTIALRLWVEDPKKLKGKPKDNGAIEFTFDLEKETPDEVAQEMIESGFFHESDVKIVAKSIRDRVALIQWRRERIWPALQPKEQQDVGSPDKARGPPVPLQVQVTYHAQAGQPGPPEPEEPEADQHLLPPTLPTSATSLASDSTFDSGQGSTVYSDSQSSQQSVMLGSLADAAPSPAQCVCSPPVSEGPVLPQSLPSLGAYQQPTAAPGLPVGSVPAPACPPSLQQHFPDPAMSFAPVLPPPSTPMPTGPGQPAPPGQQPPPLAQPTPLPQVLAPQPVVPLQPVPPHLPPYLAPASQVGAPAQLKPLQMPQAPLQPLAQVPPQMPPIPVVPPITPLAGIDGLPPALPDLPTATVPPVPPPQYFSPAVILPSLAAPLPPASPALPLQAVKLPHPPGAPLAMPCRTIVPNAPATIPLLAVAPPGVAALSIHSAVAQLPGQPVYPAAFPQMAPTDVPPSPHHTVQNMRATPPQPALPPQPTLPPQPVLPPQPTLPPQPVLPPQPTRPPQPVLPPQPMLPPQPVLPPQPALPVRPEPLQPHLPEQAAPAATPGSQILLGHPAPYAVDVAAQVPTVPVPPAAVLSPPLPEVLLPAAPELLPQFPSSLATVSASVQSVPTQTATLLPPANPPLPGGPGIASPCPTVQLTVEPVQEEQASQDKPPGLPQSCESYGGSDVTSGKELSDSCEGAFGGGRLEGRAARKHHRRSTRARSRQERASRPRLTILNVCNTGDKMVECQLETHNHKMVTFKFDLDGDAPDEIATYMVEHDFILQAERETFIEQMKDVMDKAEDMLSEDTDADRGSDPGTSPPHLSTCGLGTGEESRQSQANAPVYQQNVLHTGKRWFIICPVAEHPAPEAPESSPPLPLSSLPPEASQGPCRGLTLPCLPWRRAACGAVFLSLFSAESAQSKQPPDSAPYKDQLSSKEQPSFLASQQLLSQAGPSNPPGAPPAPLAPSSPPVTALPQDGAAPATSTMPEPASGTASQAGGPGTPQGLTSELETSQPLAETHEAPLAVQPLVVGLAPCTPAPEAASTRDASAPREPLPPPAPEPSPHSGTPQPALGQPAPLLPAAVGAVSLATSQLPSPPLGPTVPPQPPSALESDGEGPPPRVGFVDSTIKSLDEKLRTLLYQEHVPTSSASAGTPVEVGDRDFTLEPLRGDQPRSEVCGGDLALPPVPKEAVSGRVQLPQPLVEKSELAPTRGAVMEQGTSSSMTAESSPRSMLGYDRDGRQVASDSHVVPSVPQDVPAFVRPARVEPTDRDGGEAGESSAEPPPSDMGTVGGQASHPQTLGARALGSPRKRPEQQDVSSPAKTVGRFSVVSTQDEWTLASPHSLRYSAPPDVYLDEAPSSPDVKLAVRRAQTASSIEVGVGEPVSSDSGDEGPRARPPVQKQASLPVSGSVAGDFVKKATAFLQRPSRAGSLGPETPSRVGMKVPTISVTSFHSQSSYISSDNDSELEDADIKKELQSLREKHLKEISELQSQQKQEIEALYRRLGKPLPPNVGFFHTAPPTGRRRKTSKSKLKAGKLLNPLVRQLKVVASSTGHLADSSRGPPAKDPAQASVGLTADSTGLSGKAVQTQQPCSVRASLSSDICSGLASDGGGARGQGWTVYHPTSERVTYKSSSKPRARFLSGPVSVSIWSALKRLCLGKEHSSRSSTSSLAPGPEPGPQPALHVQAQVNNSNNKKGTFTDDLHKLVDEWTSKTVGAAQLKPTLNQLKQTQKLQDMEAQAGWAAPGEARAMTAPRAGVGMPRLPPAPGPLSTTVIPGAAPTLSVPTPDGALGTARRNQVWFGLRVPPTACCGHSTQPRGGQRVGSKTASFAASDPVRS

[12] = biological target: various kinases (Homo sapiens, UniProt Q9HBH9); details: MKNK2 (MNK2)
[13] = biological target: various kinases (Homo sapiens, UniProt Q13163); details: MAP2K5 (MEK5)
[14] = biological target: various kinases (Homo sapiens, UniProt Q9NYL2); details: kinase ZAK; LanthaScreen Binding
various kinases (Homo sapiens, UniProt Q9NYL2), sequence (Q9NYL2 whole entry): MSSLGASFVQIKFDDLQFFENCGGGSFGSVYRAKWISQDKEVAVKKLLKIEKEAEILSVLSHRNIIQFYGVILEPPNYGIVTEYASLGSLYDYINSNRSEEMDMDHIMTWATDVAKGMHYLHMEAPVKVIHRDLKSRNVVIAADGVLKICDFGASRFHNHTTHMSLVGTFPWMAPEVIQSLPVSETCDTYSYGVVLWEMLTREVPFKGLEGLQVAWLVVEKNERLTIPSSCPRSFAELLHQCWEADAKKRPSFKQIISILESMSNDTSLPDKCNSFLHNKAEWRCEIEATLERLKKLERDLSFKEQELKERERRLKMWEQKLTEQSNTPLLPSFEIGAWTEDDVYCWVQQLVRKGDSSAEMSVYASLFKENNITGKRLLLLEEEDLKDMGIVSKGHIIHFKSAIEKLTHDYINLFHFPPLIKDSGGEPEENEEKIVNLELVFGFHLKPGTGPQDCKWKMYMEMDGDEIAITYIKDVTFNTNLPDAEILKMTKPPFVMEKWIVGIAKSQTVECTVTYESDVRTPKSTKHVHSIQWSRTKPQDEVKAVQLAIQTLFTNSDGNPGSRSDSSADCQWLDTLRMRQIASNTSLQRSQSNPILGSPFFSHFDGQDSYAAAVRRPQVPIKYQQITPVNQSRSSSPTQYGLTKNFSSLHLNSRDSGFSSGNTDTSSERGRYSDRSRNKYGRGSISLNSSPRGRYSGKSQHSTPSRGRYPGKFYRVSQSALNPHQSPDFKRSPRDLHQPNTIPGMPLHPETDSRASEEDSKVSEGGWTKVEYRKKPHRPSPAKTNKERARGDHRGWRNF

[15] = biological target: various kinases (Homo sapiens, UniProt P10721, T670I/V559D); details: KIT V559D T670I
[16] = biological target: various kinases (Homo sapiens, UniProt Q00536); details: CDK16 (PCTK1)/cyclin Y
[17] = biological target: various kinases (Homo sapiens, UniProt Q9Y572); details: kinase RIPK3; LanthaScreen Binding
various kinases (Homo sapiens, UniProt Q9Y572), sequence (Q9Y572 whole entry): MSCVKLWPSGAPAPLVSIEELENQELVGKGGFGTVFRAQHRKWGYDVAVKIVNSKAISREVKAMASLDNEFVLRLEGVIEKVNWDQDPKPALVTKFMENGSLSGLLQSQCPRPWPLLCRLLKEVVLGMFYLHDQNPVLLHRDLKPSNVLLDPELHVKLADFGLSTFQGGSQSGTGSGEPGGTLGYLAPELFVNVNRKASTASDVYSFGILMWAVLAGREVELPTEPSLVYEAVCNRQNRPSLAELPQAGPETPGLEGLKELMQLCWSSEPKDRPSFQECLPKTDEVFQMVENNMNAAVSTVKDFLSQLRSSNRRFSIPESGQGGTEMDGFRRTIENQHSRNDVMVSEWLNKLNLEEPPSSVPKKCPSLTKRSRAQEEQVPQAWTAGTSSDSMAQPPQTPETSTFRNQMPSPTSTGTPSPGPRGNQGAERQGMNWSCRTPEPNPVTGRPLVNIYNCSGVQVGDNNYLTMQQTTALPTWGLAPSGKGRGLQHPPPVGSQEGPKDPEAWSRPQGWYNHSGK

[18] = biological target: various kinases (Homo sapiens, UniProt Q02750); details: MAP2K1 (MEK1)

COc1ccc2c(c1)[C@]1(C[C@H]1c1ccc3c(/C=C/c4ccc(CN5C[C@@H](C)O[C@@H](C)C5)cc4)n[nH]c3c1)C(=O)N2 [CFI-400945]
% Inhibition Average [1]: 18%
% Inhibition Duplicate #1 [1]: 25%
% Inhibition Duplicate #2 [1]: 11%
% Inhibition Average [2]: 0%
% Inhibition Duplicate #1 [2]: -4%
% Inhibition Duplicate #2 [2]: 3%
% Inhibition [3]: -6% and 0%
% Inhibition Average [4]: 6%
% Inhibition Duplicate #1 [4]: 2%
% Inhibition Duplicate #2 [4]: 11%
% Inhibition [5]: -4% and -7%
% Inhibition ([6]; AMPK (A1/B1/G2)): 13% and 9%
% Inhibition ([6]; AMPK (A1/B1/G3)): 10% and 15%
% Inhibition ([6]; AMPK (A1/B2/G1)): 14% and 13%
% Inhibition Average [7]: 1%
% Inhibition Duplicate #1 [7]: -2%
% Inhibition Duplicate #2 [7]: 5%
% Inhibition [8]: 21% and 20%
% Inhibition [9]: 78% and 79%
% Inhibition Average [10]: 15%
% Inhibition Duplicate #1 [10]: 14%
% Inhibition Duplicate #2 [10]: 17%
% Inhibition Average [11]: -3%
% Inhibition Duplicate #1 [11]: -6%
% Inhibition Duplicate #2 [11]: 0%
% Inhibition [12]: 26% and 29%
% Inhibition [13]: 6%
% Inhibition Average [14]: -1%
% Inhibition Duplicate #1 [14]: -1%
% Inhibition Duplicate #2 [14]: -1%
% Inhibition [15]: 10%
% Inhibition [16]: 10% and 9%
% Inhibition Average [17]: 11%
% Inhibition Duplicate #1 [17]: 11%
% Inhibition Duplicate #2 [17]: 11%
% Inhibition [18]: 9% and 8%
